We go through 1 compound from patent publication US11352358B2, “FXR agonist” (XUANZHU BIOPHARMACEUTICAL CO., LTD., priority 2017, dated 2022).

The subject of one series is BSEP mRNA in HepG2 cells. Put plainly: Relative expression of BSEP mRNA in HepG2 cells (qPCR), Experimental Example 1. As to conditions: Table 1, 24 hrs, expression under 3 μM of PX-104 as 100%. The series is classed as cell-based, human. The method, then: compounds of the present invention (for their chemical names and preparation methods, see the preparation example of each compound); compound PX-104 and compound 30-70 (for their structures, see the background of the invention, and for their preparation methods, see patent applications WO2011020615A1 and WO2012087519A1).
Cells were digested with pancreatin and collected, and the concentration of the cells was determined; according to the counting result, the cells were resuspended to a density of 7.5×10^5 cells/mL; 2 mL of the cell suspension was inoculated in each well of a 6-well cell culture plate; and the culture plate was placed in an incubator and cultured under the conditions of 37° C. and 5% CO2 for 24 hrs.
The to-be-tested compounds were diluted to 0.3 mM and 3 mM with DMSO; and 5 μL of each stock solution diluted in the previous step was added to 5 mL of medium individually. The concentrations of the obtained working solutions were 0.3 μM and 3 μM respectively. In the control group, medium was prepared by using equivoluminal DMSO instead of the stock solutions; the cell culture plate was taken out from the incubator; the medium was removed from the cell culture plate, and the working solutions and the control medium were added correspondingly; and the culture plate was then put back into the incubator and cultured under the conditions of 37° C. and 5% CO2 for 24 hrs.
after treatment for 24 hrs, the cell culture plate was taken out, and the medium was removed from the plate; the cells were rinsed three times with pre-cooled (4° C.) PBS; and 200 μL of pancreatin (preheated to 37° C.) was added to each well, and the plate was then gently shaken such that the pancreatin could evenly cover the plate bottom. The culture plate was then placed back into the incubator and incubated until the cells were separated from the plate bottom. 1 mL of medium was added to terminate digestion. The solution was gently pipetted and blown for several times with a pipettor, all the substances in each well were pipetted into a 1.5 mL Rnase-free centrifuge tube and centrifuged at 200×g for 5 mins; supernatants were removed to collect cell samples.
Cell lysis: Fresh RNA lysis buffer was prepared (wherein 10 μL of 2-mercaptoethanol was added to 1 mL of lysis buffer); 600 μL of lysis buffer was added to each cell sample; the cells were lysed completely by 1 to 2 mins of vigorous vortexing; the cell lysates were centrifuged at 12,000×g for 5 mins; and the supernatants were transferred to 1.5 mL Rnase-free centrifuge tubes.
Extraction and purification of RNA: An equal amount of 70% ethanol was added to each cell lysate; the centrifuge tubes were then shaken vigorously, and the buffer was mixed sufficiently, so that the particulate precipitates that might be formed after the addition of ethanol were dispersed as even as possible; and adsorption columns were put into collecting tubes, and the mixtures were transferred to the adsorption columns. 700 μL was transferred at most each time; and the solutions were centrifuged at 12,000×g under room temperature for 15 secs. The solutions in the collecting tubes were discarded, and the adsorption columns were put into the collecting tubes once again; and all the remaining mixtures were then transferred into the adsorption columns. 700 μL of eluent I was added to the adsorption column; and the solutions were centrifuged at 12,000×g under room temperature for 15 secs. The adsorption columns were put into new collecting tubes; 500 μL of eluent II was added to the adsorption column; and the solutions were centrifuged at 12,000×g under room temperature for 15 secs. […]
(In general: Real-time PCR tracks product formation cycle by cycle.)

The nature of series [1]: Liver microsome metabolism stability, human liver microsome. Format: in vitro ADME. As to conditions: 0.5 mg protein/mL, test sample 1 μM, β-NADPH. The method, then: Test samples: the homemade compounds 1, 2, 4 and 5 of the present invention (for their chemical names and preparation methods, see the preparation example for each compound).
a mixed liver microsomes of SD rat and human both purchased from XenoTech, with batch Nos.: 1410271 (SD rat) and 1410013 (human) respectively, wherein the microsomal protein concentrations both were 20 mg mL^−1;
experimental promoter β-NADPH purchased from Roche (batch No.: 524F0231); and a phosphate buffer solution (pH 7.4) made in the lab.
An appropriate amount of the test sample powder was weighed accurately, and dissolved in an appropriate amount of dimethyl sulfoxide (DMSO) to a concentration of 1 mM; and the solution was then diluted by 20 times with methanol to yield a 50 μM working solution.
(1) According to the proportions in table 3 “Composition of the incubation system for liver microsome metabolism stability experiment” above, for each compound, 6 mL of PBS (100 mM), 0.6 mL of MgCl2 solution (20 mM) and 3.66 mL of H2O were made into a mixed solution 1 for the incubation system (not containing the microsomes, the test sample and β-NADPH).
(2) Liver microsomes (20 mg protein/mL) were taken from a refrigerator (−80° C.), and were placed on a thermostatic water bath oscillator (37° C.) and pre-incubated for 3 mins.
(3) For each compound, 1.88 mL of the mixed solution 1 for the incubation system was added with 55 μL of microsomes to obtain a mixed solution 2 for the incubation system (not containing the test sample and β-NADPH).
(4) Sample group (containing the microsomes and D-NADPH): 616 μL of mixed solution 2 for the incubation system was added with 14 μL of the test sample working solution (with a concentration of 50 μM), and with 70 μL of R-NADPH working solution (10 mM). The resulted solution was well mixed, and the resulted solution was then duplicated. The time points of sampling were at 0 min, 5th min, 10th min, 20th min, 30th min and 60th min.
(5) Control group (containing the microsomes, and water instead of D-NADPH): 264 μL of mixed solution 2 for the incubation system was added with 6 μL of the test sample working solution (50 μM), and with 30 μL of water. The resulted solution was well mixed, and the resulted solution was then duplicated. The time points of sampling were at 0 min and 60th min.
(6) 50 μL of sample was taken from an incubating sample tube at each predetermined time point, added to a terminating sample tube (containing 300 μL of cold terminator), and vortexed; and the reaction was terminated.
(7) after 10 mins of vortexing, the solution was centrifuged for 5 mins (12,000 rpm).
(8) 100 μL of supernatant was taken and added with 100 μL of water, and the mixture solution was thoroughly vortexed; and the solution was then analyzed by LC-MS/MS.
Percentages of residual contents were calculated according to the following formula.
(Liver microsomes are a subcellular fraction often used to study metabolism.)

`O=C(O)c1ccc2nc(N3C[C@@H]4C[C@H]3C[C@H]4OCc3c(-c4c(Cl)cccc4Cl)noc3C3CC3)sc2c1` [Compound 2-1, 2-((1S, 4S, 5R)-5-((5-cyclopropyl-3-(2,6-dichlorophenyl)isoxazol-4-yl)methoxy)-2-azabicyclo[2.2.1]heptan-2-yl)benzo[d]thiazole-6-carboxylic acid]: the “relative expression of BSEP mRNA in HepG2 cells” value in the series with BSEP mRNA in HepG2 cells (0.3 μM) worked out at 166%; in the series with BSEP mRNA in HepG2 cells (3 μM), 185%. Further, the “Residual content (%) after 60 minutes of incubation” value in series [1] was found to be 69%.
